Data taken from US12427138B2, “Treatment of Meniere's disease” (SOUND PHARMACEUTICALS INCORPORATED, priority 2016, dated 2025).
“Also recorded” adds a separate entry of the source.

Key:
[1] = Noguchi et al., 1992; 1994; cited from earlier work
[2] = system: adults with Meniere's disease; experiment: Phase 1b clinical study: Tinnitus Loudness (TL) visual analogue scale; format: in vivo, human
Procedure: (§1) The general approach for the investigation of the safety and efficacy of SPI-1005 for Meniere's disease is conducting this phase lb, safety, pharmacokinetic and pharmacodynamic study in 40 adults with Meniere's disease. The study is evaluating escalating doses of SPI-1005 at 200, 400 or 600 mg po BID versus placebo for twenty-one days for impact on pure-tone audiometry, speech discrimination, electrocochleography, and patient-reported outcomes using validated questionnaires for assessing vertigo and tinnitus (Hornibrook, et al., 2012; Meikle, et al., 2011; Yardley, et al., 2004). This study is ongoing and being conducted in compliance with the protocol, Good Clinical Practice (GCP) and the applicable regulatory requirements.
Multiple clinical assessments and analysis of auditory and vestibular function • Pure tone audiometry and word recognition scores: Baseline, 21d tx, and 28d post-tx • Hearing loss is typically unilateral and low frequency (0.25, 0.5 and 1 kHz) • Significant hearing improvement ≥10 dB reduction from baseline • Words in noise tests (WINT) 35 words under 7 different SNRs to each ear (0-35) • Significant WINT improvement ≥10% increase from baseline • Tinnitus Functional Index (TFI) : Baseline, and 7d, 14d and 21d tx, and 7d and 28d post-tx • 25 questions answered by patient regarding their tinnitus severity (0-100) • Significant TFI improvement ≥10 pt reduction from baseline • Tinnitus Loudness (TL) answered by patient on a visual analogue scale (0-10) • Significant TL improvement ≥2 pt reduction from baseline • Vertigo Symptom Scale (VSS): Baseline, 21d tx, and 28d post-tx • 15 questions answered by patient regarding their vertigo severity (0-60) • Significant VSS improvement ≥6 pt reduction from baseline

[3] = system: adults with Meniere's disease; experiment: Phase 1b clinical study: initial analysis of efficacy, secondary endpoints versus placebo; format: in vivo, human; conditions: two analyzed cohorts
Procedure: as §1, with “requirements. […]” for “requirements.”
Study participants were been randomized to SPI-1005 or placebo in this double-blind, dose-escalation study to evaluate its safety and preliminary efficacy. Patients, aged 19-70 years, with probable or definite Meniere's disease have undergone baseline testing to have their severity of sensorineural hearing loss, tinnitus and vertigo determined before the start of study treatment (see Table 3: Schedule of Assessments). […]

[4] = system: adults with Meniere's disease; experiment: Phase 1b clinical study: Vertigo Symptom Scale (VSS); format: in vivo, human
Procedure: as §1, with “This study is ongoing and being conducted in compliance with the protocol, Good Clinical Practice (GCP) and the applicable regulatory requirements.” left out
(§2) The effect of SPI-1005 on hearing and vertigo was evaluated at baseline, at the end of 21 days of treatment and 28 days after completing treatment. Tinnitus was evaluated at baseline, weekly during treatment, and 7 and 28 days after treatment. Hearing was evaluated using pure-tone audiometric testing at 0.25, 0.5, 1, 2, 3, 4, 6, and 8 kHz, and speech discrimination using the WINT at 24, 20, 16, 12, 8, 4, and 0 Signal-to-Noise ratio (SNR). The severity of vertigo was assessed using the VSS. The severity of tinnitus was assessed using the TFI. […]
(§3) Audiological evaluations were performed at specified intervals to evaluate the efficacy of SPI-1005. […] These were scored by study personnel. […]

[5] = system: adults with Meniere's disease; experiment: Phase 1b clinical study: Tinnitus Functional Index (TFI); format: in vivo, human
Procedure: as §1, with “This study is ongoing and being conducted in compliance with the protocol, Good Clinical Practice (GCP) and the applicable regulatory requirements.” left out
as §2, §3

[6] = system: cochlea following noise- or ototoxin-induced injury; conditions: preclinical animal studies; cited from earlier work
[7] = system: adults with Meniere's disease; experiment: Phase 1b clinical study: safety and tolerability of SPI-1005; format: in vivo, human; conditions: first two cohorts (26 of 40 subjects); for safety and tolerability: oral dosing BID for 21 days
Procedure: as §1
The safety and tolerability of SPI-1005 is being determined by examining the toxicities and adverse events that are attributable to treatment. […]
Before, during, and for 28 days after administration of SPI-1005, patients were evaluated for safety by history, physical examination, vital signs and blood tests (complete blood count [CBC], Chemistry-20 [Chem-20]). Peak and trough plasma levels of ebselen and its major metabolite were determined using liquid chromatography-mass spectrometry (LCMS) at certain time points. Additionally, plasma was analyzed by High Performance Liquid Chromatography-Inductively Coupled Plasma-Mass Spectrometry (HPLC-ICP-MS) for total selenium at the corresponding time points. Patients were monitored for adverse events at each clinic visit. Female patients received pregnancy testing, and those found to be pregnant were excluded or discontinued from the study and monitored for adverse events. […]
History and physical examinations, vital signs and analysis of lab reports were performed to evaluate the safety of SPI-1005. […] Blood test results were analyzed according to currently established laboratory norms. […]
Blood testing was performed at specified intervals to evaluate the safety of SPI-1005. […] Blood was collected and shipped to a designated CRO(s) to quantify ebselen, ebselen metabolite, and total selenium. […]

[8] = system: adults with Meniere's disease; experiment: Phase 1b clinical study: speech discrimination, Words-in-Noise Test (WINT) / word recognition scores; format: in vivo, human
Procedure: as §1
(§4) The effect of SPI-1005 on hearing and vertigo was evaluated at baseline, at the end of 21 days of treatment and 28 days after completing treatment. Tinnitus was evaluated at baseline, weekly during treatment, and 7 and 28 days after treatment. Hearing was evaluated using pure-tone audiometric testing at 0.25, 0.5, 1, 2, 3, 4, 6, and 8 kHz, and speech discrimination using the WINT at 24, 20, 16, 12, 8, 4, and 0 Signal-to-Noise ratio (SNR). The severity of vertigo was assessed using the VSS. The severity of tinnitus was assessed using the TFI. In addition, ECochG was conducted at baseline, at the end of treatment and 28 days after completing treatment in order to measure the pharmacodynamic response.
as §3
(§5) Audiometric data were collected in the form of categorical and continuous variables. Categorical data were analyzed using the chi-square distribution. Continuous data were analyzed using mixed-effects multiple-repeated measures, and post-hoc analysis, when necessary, was adjusted using Bonferroni applications. Non-parametric tests included the Mann-Whitney U. Calculated p-values were considered statistically significant at or below an alpha value of 0.05. […]

[9] = 25° Celsius; cited from earlier work
[10] = system: cytochrome-C release from mitochondria; conditions: during lipid peroxidation; Namura et al., 2001; cited from earlier work
[11] = system: adults with Meniere's disease; experiment: Phase 1b clinical study: pure-tone audiometry (PTA), low frequency hearing; format: in vivo, human
Procedure: as §1, §4, §3, §5

O=c1c2ccccc2[se]n1-c1ccccc1 [ebselen, 2-phenyl-1,2-benzisoselenazol-3(2H)-one]
activity against peroxynitrite [1]: strong activity against peroxynitrite
TL improvement, actives vs placebo ([2]; human, in vivo): greater in actives than placebo
share of actives with significant TL improvement ≥2 pt reduction ([2]; placebo 33%): 70%
highest improvement in tinnitus loudness (reduction) ([2]; scale 0-10): ≤ 8 pt
clinical efficacy (hearing, tinnitus, vertigo) versus placebo [3]: achieved several secondary endpoints versus placebo; also recorded: good clinical efficacy
clinical efficacy (hearing, tinnitus, vertigo) versus placebo ([3]; listed as Ebselen): clinically relevant improvements in hearing, tinnitus and vertigo
VSS improvement, actives vs placebo ([4]; human, in vivo): greater in actives than placebo
share of actives with significant VSS improvement ≥6 pt reduction ([4]; placebo 33%): 55%
share of actives with significant TFI improvement ≥10 pt reduction ([5]; placebo 50%): 40%
highest improvement in TFI score (reduction) ([5]; scale 0-100): ≤ 62 pt
effect on pathologic changes in the cochlea [6]: prevent or reverse the pathologic changes in the cochlea
drug-related adverse events [7]: no drug-related adverse events have occurred
safety and tolerability [7]: safe and well tolerated
safety and tolerability ([7]; listed as SPI-1005): well tolerated with no adverse events due to study drug
WINT improvement, actives vs placebos ([8]; first two cohorts): significant and specific to actives vs placebos
highest improvement over baseline WRS ([8]; word recognition scores, oral dosing 21 days): ≤ 120%
share of actives with significant WINT improvement ≥10% increase ([8]; ≥10% increase from baseline, no significant improvement in placebos): 35%
solubility in aqueous solutions [9]: slightly soluble
effect on cytochrome-C release from mitochondria and nuclear damage [10]: reduces cytochrome-C release from mitochondria and nuclear damage
highest improvement in low frequency (0.25, 0.5, and 1 kHz) hearing ([11]; PTA, oral dosing 21 days, first two cohorts): ≤ 35 dB
PTA improvement, actives vs placebos ([11]; first two cohorts): significant and specific to actives vs placebos
share of actives with significant hearing improvement ≥10 dB ([11]; ≥10 dB reduction from baseline, no significant improvement in placebos): 60%
